Where two headings read alike, the source gives them in different places.
Key:
Type in all cases: cell-based
[1] = target: T1, DAT (dopamine release) (Rattus norvegicus, UniProt P23977); assay: Dopamine release filtration assay in rat striatal synaptosomes; details: % of release by 50 μM MDMA, read-out: DAT release pEC50 (converted)
T1 construct: added to the tube containing the crude striatal synaptosomes preparation; from tissue; host or cells: rat striatum, crude synaptosomes
Method: (§1) Methods and Procedure—Release: The potency of the disclosed compounds for stimulating dopamine (DA) release was measured by an endpoint release filtration assay in a 96-well format using rat synaptosomes, essentially as described by Sandtner et al., Mol. Pharmacol., 2016; 89(1):165-75, and Baumann et al., Neuropsychopharmacol., 2013; 38:552-562, with some variations.
(§2) One male rat was sacrificed and striatum/cortex regions were dissected over ice. The striatum portions were weighed and put in a glass tube for homogenization, containing ice-cold 0.32 M sucrose (dilution 1:24 w/v), while the frontal cortex tissue was diluted in ice-cold 0.32 M sucrose, 1:20 w/v. Tissues were homogenized and centrifuged for 10 mins at 1000×g. The two supernatants from striatum and cortex (crude synaptosomes) were retained on ice until use.
Test compounds were then serially diluted 1:4 in neat DMSO as concentration-response curves (CRC) of 11 points. […]
^3H-Dopamine was added to the tube containing the crude striatal synaptosomes preparation, diluted 1:20 (v/v) in complete Krebs-phosphate buffer, and was incubated at RT and gently mixed for 60 minutes. […] The retained radioactivity was counted in a scintillation counter after the addition of 50 μL/well Microscint-20.
The raw data (cpm) from residual radioactivity onto the filter were elaborated for the determination of pEC50/EC50 values. Specifically, the compound effect was expressed as the percent of maximal release obtained with 50 μM MDMA (100% release) in comparison to vehicle (0.5% DMSO, 0% release). […] In each plate, for both 0% and 100% of release, the signal window is monitored performing Z′ calculations using raw data of four replicates.

[2] = target: T2, SERT (serotonin transporter) (Homo sapiens, UniProt P31645); assay: SERT uptake scintillation proximity assay, inhibition of [3H]-serotonin uptake in hSERT-CHO cells; details: read-out: SERT uptake pIC50 (converted)
T2 construct: expressed in transfected cells; host or cells: CHO
T2 sequence (P31645 whole entry): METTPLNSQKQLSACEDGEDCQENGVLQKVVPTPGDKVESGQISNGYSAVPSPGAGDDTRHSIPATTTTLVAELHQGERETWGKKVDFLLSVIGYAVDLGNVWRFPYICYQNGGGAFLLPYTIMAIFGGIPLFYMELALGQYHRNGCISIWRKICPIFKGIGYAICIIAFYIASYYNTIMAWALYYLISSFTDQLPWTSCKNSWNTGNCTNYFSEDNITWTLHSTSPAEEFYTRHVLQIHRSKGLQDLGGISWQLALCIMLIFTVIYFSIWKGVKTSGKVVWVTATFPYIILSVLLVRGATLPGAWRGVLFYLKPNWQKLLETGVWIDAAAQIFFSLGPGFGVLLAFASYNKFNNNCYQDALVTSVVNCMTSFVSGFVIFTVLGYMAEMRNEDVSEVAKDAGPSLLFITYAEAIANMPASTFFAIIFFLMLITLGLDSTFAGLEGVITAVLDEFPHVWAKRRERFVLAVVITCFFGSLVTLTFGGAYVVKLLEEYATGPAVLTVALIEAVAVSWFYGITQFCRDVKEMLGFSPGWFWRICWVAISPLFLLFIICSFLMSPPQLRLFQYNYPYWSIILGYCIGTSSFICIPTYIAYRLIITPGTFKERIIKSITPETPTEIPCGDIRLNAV
Method: (§3) Overview: Eighty-eight compounds were tested in SERT (serotonin transporter) and DAT (dopamine transporter) uptake assays (completed as scintillation proximity assays, or SPAs, in a recombinant CHO cell line). Fifty-two compounds were tested in release assays for 5-HT and DA release in rat synaptosomes.
In addition, hSERT-CHO cells were detached using Versene and added at a density of 150,000 cells/mL to the SPA Mixture, which contains the following components in the Assay Buffer described above: 0.5 mg/mL SPA Imaging beads (RPNQ0001, PerkinElmer), 10 μM pargyline and 35 nM of [^3H]-serotonin (NET498, PerkinElmer). The SPA Mixture was added 20 μL/well to 384 well plates containing 0.1 μL/well of test compound in neat DMSO (11 points of 1:5 serial dilution, 0.5% DMSO final), 0.1 μL of DMSO (total uptake), or 0.1 μL of the standard inhibitor indatraline (1 μM, nonspecific uptake). Plates were sealed with a Top-seal A and read using a Microbeta counter (PerkinElmer) after 120 minutes of incubation at room temperature.
(§4) For both tests, the raw experimental data (cpm) were elaborated for the determination of pIC50/IC50 values as % inhibition of specific uptake. Concentration-response curves of MDMA, MDDMA, citalopram and GBR-12909 were used as internal standards in all experiments, and the signal window was monitored in each plate performing Z′ calculations, as described in Zhang et al., J. Biomol. Screen., 1999; 4: 67-73.

[3] = target: T3, SERT (serotonin release) (Rattus norvegicus, UniProt P31652); assay: Serotonin release filtration assay in rat cortex synaptosomes
T3 construct: from tissue; host or cells: rat frontal cortex, crude synaptosomes
T3 sequence (P31652 whole entry): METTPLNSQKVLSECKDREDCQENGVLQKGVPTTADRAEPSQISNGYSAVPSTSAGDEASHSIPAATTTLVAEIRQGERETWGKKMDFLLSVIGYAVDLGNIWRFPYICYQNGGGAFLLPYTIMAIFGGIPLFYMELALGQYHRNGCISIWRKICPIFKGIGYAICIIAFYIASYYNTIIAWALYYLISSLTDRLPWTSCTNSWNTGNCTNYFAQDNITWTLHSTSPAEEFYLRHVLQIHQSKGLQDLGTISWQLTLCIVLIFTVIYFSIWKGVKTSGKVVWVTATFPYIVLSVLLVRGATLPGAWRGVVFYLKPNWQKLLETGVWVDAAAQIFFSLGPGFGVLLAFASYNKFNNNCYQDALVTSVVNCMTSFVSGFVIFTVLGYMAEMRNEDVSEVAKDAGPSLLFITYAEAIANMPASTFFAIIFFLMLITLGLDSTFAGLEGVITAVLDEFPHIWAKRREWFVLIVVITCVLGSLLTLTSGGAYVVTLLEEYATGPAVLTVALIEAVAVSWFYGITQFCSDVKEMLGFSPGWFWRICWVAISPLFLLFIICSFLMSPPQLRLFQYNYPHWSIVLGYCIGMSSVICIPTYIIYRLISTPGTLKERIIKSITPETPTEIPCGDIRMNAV
Method: as §1, §2
Test compounds were then serially diluted 1:4 in neat DMSO as concentration-response curves (CRC) of 11 points. To each well of a 2-mL 96 deep-well plate (Whatman UNIPLATE 96 well) were added: 2 μL of CRC of test compounds or 2 μL of DMSO (no-release condition) or 2 μL of MDMA 10 mM solution (final 50 μM, for maximal release), followed by 200 μL/well of complete Krebs-phosphate buffer (126 mM NaCl, 2.4 mM KCl, 0.83 mM CaCl2, 0.8 mM MgCl2, 0.5 mM KH2PO4, 0.5 mM Na2SO4, 11.1 mM Glucose, 0.05 mM pargyline, 1 mg/mL ascorbic acid, freshly added, pH 7.4), containing 1 μM reserpine to block vesicular uptake of substrate. Desipramine (100 nM) and citalopram (100 nM) were also added to the release assay buffer in order to inhibit NET and SERT uptake, respectively. The final compound dilution, then, was 1:200 in 0.5% DMSO.
The raw data (cpm) from residual radioactivity onto the filter were elaborated for the determination of pEC50/EC50 values. Specifically, the compound effect was expressed as the percent of maximal release obtained with 50 μM MDMA (100% release) in comparison to vehicle (0.5% DMSO, 0% release). Both MDMA and D-amphetamine in CRC were used as internal controls in each release experiment. In each plate, for both 0% and 100% of release, the signal window is monitored performing Z′ calculations using raw data of four replicates.
Synaptosomes were then loaded with ^3H-5HT for 60 minutes at RT. After dispensing loaded synaptosomes onto a compound plate (200 μL/well), the release reaction proceeded for an additional 15 minutes. Stop by filtration, counting, and data elaboration were performed as described for DA release.

[4] = target: T4, human DAT (Homo sapiens, UniProt Q01959); assay: DAT uptake scintillation proximity assay, inhibition of [3H]-dopamine uptake in hDAT-CHO cells; details: read-out: DAT update pIC50 (converted)
T4 construct: expressed in transfected cells; host or cells: CHO
T4 sequence (Q01959 whole entry): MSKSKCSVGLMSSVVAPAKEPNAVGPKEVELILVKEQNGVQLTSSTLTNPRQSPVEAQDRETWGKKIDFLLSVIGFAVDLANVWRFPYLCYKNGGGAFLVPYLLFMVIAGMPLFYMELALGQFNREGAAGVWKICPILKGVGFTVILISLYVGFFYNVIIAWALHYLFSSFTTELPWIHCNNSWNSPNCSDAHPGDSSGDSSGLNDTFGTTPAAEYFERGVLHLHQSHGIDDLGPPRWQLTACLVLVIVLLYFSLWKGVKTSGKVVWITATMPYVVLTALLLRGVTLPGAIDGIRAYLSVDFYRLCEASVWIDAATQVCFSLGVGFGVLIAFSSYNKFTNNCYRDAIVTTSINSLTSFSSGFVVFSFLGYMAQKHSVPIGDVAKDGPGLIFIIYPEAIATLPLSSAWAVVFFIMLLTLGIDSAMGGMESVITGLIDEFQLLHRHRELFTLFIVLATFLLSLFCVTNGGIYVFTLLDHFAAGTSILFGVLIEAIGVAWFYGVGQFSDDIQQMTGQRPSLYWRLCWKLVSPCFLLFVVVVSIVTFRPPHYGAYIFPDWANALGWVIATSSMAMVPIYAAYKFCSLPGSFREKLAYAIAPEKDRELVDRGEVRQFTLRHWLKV
Method: as §3
Methods and Procedure-Uptake: The potency of the compounds described herein for inhibiting DAT function was measured using an uptake assay in a recombinant CHO cell line stably expressing human DAT (hDAT-CHO). Potency was measured in terms of pIC50 by testing for inhibition of [^3H]-dopamine uptake in hDAT-CHO cells in a 384-well format scintillation proximity assay (SPA).
Briefly, on experiment days, hDAT-CHO cells were detached using Versene and added at a density of approximately 300,000 cells/mL to the SPA Mixture, which contains the following components in Assay Buffer (20 mM HEPES, 145 mM NaCl, 5 mM KCl, 2 mM CaCl2, 1 mM MgCl2, 5.5 mM glucose, 0.01% Pluronic F127, pH 7.3): 0.75 mg/mL SPA Imaging beads (RPNQ0001, PerkinElmer), 10 μM pargyline and 80 nM of [^3H]-dopamine (NET673, PerkinEImer). The SPA Mixture was added 20 μL/well to 384 well plates containing 0.1 μL/well of test compound in neat DMSO (11 points of 1:5 serial dilution, 0.5% DMSO final) or 0.1 μL of DMSO (total uptake) or 0.1 μL of the standard inhibitor indatraline (at 1 μM final concentration, as nonspecific uptake). Plates were sealed with a Top-seal A and read using a Microbeta counter (PerkinEImer) after 45 minutes of incubation at room temperature.
as §4

[5] = rat cortex synaptosomes, % of release by 50 μM MDMA, read-out: SERT release pEC50 (converted)

T1 sequence (P23977 whole entry): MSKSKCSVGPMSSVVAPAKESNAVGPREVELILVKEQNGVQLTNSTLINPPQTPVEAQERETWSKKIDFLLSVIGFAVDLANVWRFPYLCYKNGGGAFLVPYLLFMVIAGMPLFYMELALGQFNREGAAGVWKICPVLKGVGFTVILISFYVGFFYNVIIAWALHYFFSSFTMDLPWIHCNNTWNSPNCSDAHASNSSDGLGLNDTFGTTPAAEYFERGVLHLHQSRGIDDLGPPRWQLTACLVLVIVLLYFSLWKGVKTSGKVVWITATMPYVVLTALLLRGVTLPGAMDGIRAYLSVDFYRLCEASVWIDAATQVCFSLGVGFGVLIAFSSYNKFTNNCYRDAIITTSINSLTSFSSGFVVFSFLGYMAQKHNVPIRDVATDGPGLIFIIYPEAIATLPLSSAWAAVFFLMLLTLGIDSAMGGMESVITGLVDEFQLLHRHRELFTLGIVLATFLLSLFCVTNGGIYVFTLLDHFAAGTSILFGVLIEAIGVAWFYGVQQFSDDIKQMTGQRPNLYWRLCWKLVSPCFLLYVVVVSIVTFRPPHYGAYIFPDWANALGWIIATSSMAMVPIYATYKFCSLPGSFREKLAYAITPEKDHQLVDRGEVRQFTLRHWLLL

SMILES | EC50 [1] | IC50 [2] | EC50 [3, 5] | EC50 ([3]; serotonin release, read-out: EC50 to influence SER release) | IC50 [4]
Clc1ccc(C23CNC(CO2)C3)cc1Cl (stereo not shown) [522A, 1-(3,4-dichlorophenyl)-2-oxa-5-azabicyclo[2.2.1]heptane] | 61.7 nM | 56.2 nM | 19.1 nM | 22 nM | 63.1 nM
Clc1ccc([C@]23CN[C@H](CO2)C3)cc1Cl (single isomer, unassigned) [516A] | 1100 nM | 46.8 nM | 18.2 nM | – | 72.4 nM
Clc1ccc([C@@]23CN[C@@H](CO2)C3)cc1Cl (single isomer, unassigned) [518A] | 33.1 nM | 81.3 nM | 17 nM | – | 89.1 nM

Reference: US12595269B2, “Morpholine-like monoamine releasers” (Solvonis Therapeutics Ireland Holdings Limited, priority 2022, dated 2026)
